Test results: PubChem BioAssay (NCI)
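A five-concentration, 48-hour dose response in 96-well plates underlies each endpoint, interpolated linearly between surrounding concentrations. GI50 marks 50% less growth. TGI is the concentration that stops growth completely.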

Legend:
Test in all cases: DTP human tumour cell line panel, 48 h
T-47D breast = tested on: T-47D breast
MDA-MB-435 = tested on: MDA-MB-435
MALME-3M melanoma = tested on: MALME-3M melanoma
A549 NSCLC = tested on: A549 NSCLC
SF-539 CNS = tested on: SF-539 CNS
SK-MEL-2 melanoma = tested on: SK-MEL-2 melanoma
MDA-MB-231 breast = tested on: MDA-MB-231 breast
SK-OV-3 ovarian = tested on: SK-OV-3 ovarian
MDA-MB-468 breast = tested on: MDA-MB-468 breast
HOP-62 NSCLC = tested on: HOP-62 NSCLC
SNB-75 CNS = tested on: SNB-75 CNS
A498 renal = tested on: A498 renal
MOLT-4 leukemia = tested on: MOLT-4 leukemia
UACC-257 melanoma = tested on: UACC-257 melanoma
HT29 colon = tested on: HT29 colon
SK-MEL-5 melanoma = tested on: SK-MEL-5 melanoma
IGROV1 ovarian = tested on: IGROV1 ovarian
LOX IMVI melanoma = tested on: LOX IMVI melanoma
OVCAR-5 ovarian = tested on: OVCAR-5 ovarian
CCRF-CEM leukemia = tested on: CCRF-CEM leukemia
MCF7 breast = tested on: MCF7 breast
COLO 205 colon = tested on: COLO 205 colon
OVCAR-3 ovarian = tested on: OVCAR-3 ovarian
SF-268 CNS = tested on: SF-268 CNS
SN12C renal = tested on: SN12C renal
BT-549 breast = tested on: BT-549 breast
SNB-19 CNS = tested on: SNB-19 CNS
RXF 393 renal = tested on: RXF 393 renal
K-562 leukemia = tested on: K-562 leukemia
HCT-116 colon = tested on: HCT-116 colon
NCI-H522 lung = tested on: NCI-H522 lung
NCI-H226 lung = tested on: NCI-H226 lung
NCI-H460 lung = tested on: NCI-H460 lung
TK-10 renal = tested on: TK-10 renal
SW-620 colon = tested on: SW-620 colon
UO-31 renal = tested on: UO-31 renal
M14 melanoma = tested on: M14 melanoma
PC-3 prostate = tested on: PC-3 prostate
EKVX NSCLC = tested on: EKVX NSCLC
DU-145 prostate = tested on: DU-145 prostate
HL-60(TB) leukemia = tested on: HL-60(TB) leukemia
HS 578T breast = tested on: HS 578T breast
OVCAR-8 ovarian = tested on: OVCAR-8 ovarian
SR leukemia = tested on: SR leukemia
ACHN renal = tested on: ACHN renal
KM12 colon = tested on: KM12 colon
NCI-H23 lung = tested on: NCI-H23 lung
CAKI-1 renal = tested on: CAKI-1 renal
HCT-15 colon = tested on: HCT-15 colon
OVCAR-4 ovarian = tested on: OVCAR-4 ovarian
SK-MEL-28 melanoma = tested on: SK-MEL-28 melanoma
UACC-62 melanoma = tested on: UACC-62 melanoma
SF-295 CNS = tested on: SF-295 CNS
HCC-2998 colon = tested on: HCC-2998 colon
NCI/ADR-RES ovarian = tested on: NCI/ADR-RES ovarian
U251 CNS = tested on: U251 CNS
HOP-92 NSCLC = tested on: HOP-92 NSCLC
786-0 renal = tested on: 786-0 renal

C=C(C)[C@@H]1CC[C@]2(COP(=O)(OCC)OCC)CC[C@]3(C)[C@H](CC[C@@H]4[C@@](C)(CCCN)[C@H](C(=C)C)CC[C@]43C)[C@@H]12
GI50 (T-47D breast): 3.23 µM | TGI (T-47D breast): 13.9 µM | GI50 (MDA-MB-435): 4.07 µM | TGI (MDA-MB-435): 17.4 µM | GI50 (MALME-3M melanoma): 7.16 µM | TGI (MALME-3M melanoma): 19.7 µM | GI50 (A549 NSCLC): 4.45 µM | TGI (A549 NSCLC): 18.5 µM | GI50 (SF-539 CNS): 10.4 µM | TGI (SF-539 CNS): 22.1 µM | GI50 (SK-MEL-2 melanoma): 9.64 µM | TGI (SK-MEL-2 melanoma): 22.6 µM | GI50 (MDA-MB-231 breast): 7.53 µM | TGI (MDA-MB-231 breast): 20.1 µM | GI50 (SK-OV-3 ovarian): 13.6 µM | TGI (SK-OV-3 ovarian): 28.7 µM | GI50 (MDA-MB-468 breast): 2.56 µM | TGI (MDA-MB-468 breast): 11.3 µM | GI50 (HOP-62 NSCLC): 11.1 µM | TGI (HOP-62 NSCLC): 24.9 µM | GI50 (SNB-75 CNS): 5.01 µM | TGI (SNB-75 CNS): 20 µM | GI50 (A498 renal): 12.5 µM | TGI (A498 renal): 25.2 µM | GI50 (MOLT-4 leukemia): 3.27 µM | TGI (MOLT-4 leukemia): 16.1 µM | GI50 (UACC-257 melanoma): 5.55 µM | TGI (UACC-257 melanoma): 18.3 µM | GI50 (HT29 colon): 4.03 µM | TGI (HT29 colon): 16.2 µM | GI50 (SK-MEL-5 melanoma): 3.47 µM | TGI (SK-MEL-5 melanoma): 12.9 µM | GI50 (IGROV1 ovarian): 11.4 µM | TGI (IGROV1 ovarian): 23.7 µM | GI50 (LOX IMVI melanoma): 4.77 µM | TGI (LOX IMVI melanoma): 17.2 µM | GI50 (OVCAR-5 ovarian): 10.9 µM | TGI (OVCAR-5 ovarian): 22.8 µM | GI50 (CCRF-CEM leukemia): 2.81 µM | TGI (CCRF-CEM leukemia): 11.3 µM | GI50 (MCF7 breast): 3.08 µM | TGI (MCF7 breast): 12 µM | GI50 (COLO 205 colon): 4.56 µM | TGI (COLO 205 colon): 19.2 µM | GI50 (OVCAR-3 ovarian): 3 µM | TGI (OVCAR-3 ovarian): 12.7 µM | GI50 (SF-268 CNS): 6.46 µM | TGI (SF-268 CNS): 23.8 µM | GI50 (SN12C renal): 4.37 µM | TGI (SN12C renal): 16.6 µM | GI50 (BT-549 breast): 9.88 µM | TGI (BT-549 breast): 22.2 µM | GI50 (SNB-19 CNS): 10 µM | TGI (SNB-19 CNS): 21.7 µM | GI50 (RXF 393 renal): 3.42 µM | TGI (RXF 393 renal): 15.2 µM | GI50 (K-562 leukemia): 3.77 µM | TGI (K-562 leukemia): > 100 µM | GI50 (HCT-116 colon): 2.92 µM | TGI (HCT-116 colon): 13.2 µM | GI50 (NCI-H522 lung): 3.01 µM | TGI (NCI-H522 lung): 14.1 µM | GI50 (NCI-H226 lung): 5.64 µM | TGI (NCI-H226 lung): 22 µM | GI50 (NCI-H460 lung): 3.43 µM | TGI (NCI-H460 lung): 14.2 µM | GI50 (TK-10 renal): 12 µM | TGI (TK-10 renal): 25.2 µM | GI50 (SW-620 colon): 3.49 µM | TGI (SW-620 colon): 15.1 µM | GI50 (UO-31 renal): 3.58 µM | TGI (UO-31 renal): 15.2 µM | GI50 (M14 melanoma): 5.13 µM | TGI (M14 melanoma): 20.4 µM | GI50 (PC-3 prostate): 2.24 µM | TGI (PC-3 prostate): 11.4 µM | GI50 (EKVX NSCLC): 4.88 µM | TGI (EKVX NSCLC): 18.5 µM | GI50 (DU-145 prostate): 10.9 µM | TGI (DU-145 prostate): 23.8 µM | GI50 (HL-60(TB) leukemia): 2.87 µM | TGI (HL-60(TB) leukemia): 9.23 µM | GI50 (HS 578T breast): 4.67 µM | TGI (HS 578T breast): 24.3 µM | GI50 (OVCAR-8 ovarian): 6.35 µM | TGI (OVCAR-8 ovarian): 23.1 µM | GI50 (SR leukemia): 3.66 µM | TGI (SR leukemia): > 100 µM | GI50 (ACHN renal): 5.54 µM | TGI (ACHN renal): 18.1 µM | GI50 (KM12 colon): 4.73 µM | TGI (KM12 colon): 17.8 µM | GI50 (NCI-H23 lung): 4.73 µM | TGI (NCI-H23 lung): 17.8 µM | GI50 (CAKI-1 renal): 4.12 µM | TGI (CAKI-1 renal): 17.3 µM | GI50 (HCT-15 colon): 3.76 µM | TGI (HCT-15 colon): 13.7 µM | GI50 (OVCAR-4 ovarian): 5.35 µM | TGI (OVCAR-4 ovarian): 21.8 µM | GI50 (SK-MEL-28 melanoma): 7.84 µM | TGI (SK-MEL-28 melanoma): 20.2 µM | GI50 (UACC-62 melanoma): 4.45 µM | TGI (UACC-62 melanoma): 17.2 µM | GI50 (SF-295 CNS): 4.43 µM | TGI (SF-295 CNS): 17.6 µM | GI50 (HCC-2998 colon): 3.7 µM | TGI (HCC-2998 colon): 15.1 µM | GI50 (NCI/ADR-RES ovarian): 5.45 µM | TGI (NCI/ADR-RES ovarian): 21.7 µM | GI50 (U251 CNS): 6.51 µM | TGI (U251 CNS): 20.7 µM | GI50 (HOP-92 NSCLC): 2.63 µM | TGI (HOP-92 NSCLC): 16.2 µM | GI50 (786-0 renal): 5.04 µM | TGI (786-0 renal): 19.9 µM
